Test results taken from paper PMC6591251, “Discovery of potent necroptosis inhibitors targeting RIPK1 kinase activity for the treatment of inflammatory disorder and cancer metastasis” (Cell Death & Disease, 2019).

How the values were obtained:
Experiment in all cases: RBC kinase panel
Assay type in all cases: biochemical
Details in all cases: ATP 10 μM, Data1, Data2
CDK2/Cyclin A1 = target: T1, CDK2/Cyclin A1 (Homo sapiens, UniProt P24941)
T1 construct: purchased Reaction Biology Corporation
In short: (§1)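 Single-point screen: 1 μM compound, duplicate wells, 369-kinase human panel, ATP fixed at 10 μM.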

CK1epsilon = target: T2, CK1epsilon (Homo sapiens, UniProt P49674)
T2 construct: purchased Reaction Biology Corporation
In short: as §1

HIPK1 = target: T3, HIPK1 (Homo sapiens, UniProt Q86Z02)
T3 construct: purchased Reaction Biology Corporation
In short: as §1

TNK1 = target: T4, TNK1 (Homo sapiens, UniProt Q13470)
T4 construct: purchased Reaction Biology Corporation
In short: as §1

BRSK1 = target: T5, BRSK1 (Homo sapiens, UniProt Q8TDC3)
T5 construct: purchased Reaction Biology Corporation
In short: as §1

CDK1/cyclin B = target: T6, CDK1/cyclin B (Homo sapiens, UniProt P06493)
T6 construct: purchased Reaction Biology Corporation
In short: as §1

CHK1 = target: T7, CHK1 (Homo sapiens, UniProt O14757)
T7 construct: purchased Reaction Biology Corporation
In short: as §1

STK25/YSK1 = target: T8, STK25/YSK1 (Homo sapiens, UniProt O00506)
T8 construct: purchased Reaction Biology Corporation
In short: as §1

SSTK/TSSK6 = target: T9, SSTK/TSSK6 (Homo sapiens, UniProt Q9BXA6)
T9 construct: purchased Reaction Biology Corporation
In short: as §1

ERBB4/HER4 = target: T10, ERBB4/HER4 (Homo sapiens, UniProt Q15303)
T10 construct: purchased Reaction Biology Corporation
In short: as §1

STK21/CIT = target: T11, STK21/CIT (Homo sapiens, UniProt O14578)
T11 construct: purchased Reaction Biology Corporation
In short: as §1

NEK3 = target: T12, NEK3 (Homo sapiens, UniProt P51956)
T12 construct: purchased Reaction Biology Corporation
In short: as §1

SBK1 = target: T13, SBK1 (Homo sapiens, UniProt Q52WX2)
T13 construct: purchased Reaction Biology Corporation
In short: as §1

DYRK4 = target: T14, DYRK4 (Homo sapiens, UniProt Q9NR20)
T14 construct: purchased Reaction Biology Corporation
In short: as §1

MEKK2 = target: T15, MEKK2 (Homo sapiens, UniProt Q9Y2U5)
T15 construct: purchased Reaction Biology Corporation
In short: as §1

HIPK3 = target: T16, HIPK3 (Homo sapiens, UniProt Q9H422)
T16 construct: purchased Reaction Biology Corporation
In short: as §1

DYRK1/DYRK1A = target: T17, DYRK1/DYRK1A (Homo sapiens, UniProt Q13627)
T17 construct: purchased Reaction Biology Corporation
In short: as §1

HIPK4 = target: T18, HIPK4 (Homo sapiens, UniProt Q8NE63)
T18 construct: purchased Reaction Biology Corporation
In short: as §1

FLT4/VEGFR3 = target: T19, FLT4/VEGFR3 (Homo sapiens, UniProt P35916)
T19 construct: purchased Reaction Biology Corporation
In short: as §1

SRMS = target: T20, SRMS (Homo sapiens, UniProt Q9H3Y6)
T20 construct: purchased Reaction Biology Corporation
In short: as §1

PAK6 = target: T21, PAK6 (Homo sapiens, UniProt Q9NQU5)
T21 construct: purchased Reaction Biology Corporation
In short: as §1

HGK/MAP4K4 = target: T22, HGK/MAP4K4 (Homo sapiens, UniProt O95819)
T22 construct: purchased Reaction Biology Corporation
In short: as §1

ULK2 = target: T23, ULK2 (Homo sapiens, UniProt Q8IYT8)
T23 construct: purchased Reaction Biology Corporation
In short: as §1

WNK1 = target: T24, WNK1 (Homo sapiens, UniProt Q9H4A3)
T24 construct: purchased Reaction Biology Corporation
In short: as §1

IKKa/CHUK = target: T25, IKKa/CHUK (Homo sapiens, UniProt O15111)
T25 construct: purchased Reaction Biology Corporation
In short: as §1

CDC7/DBF4 = target: T26, CDC7/DBF4 (Homo sapiens, UniProt O00311)
T26 construct: purchased Reaction Biology Corporation
In short: as §1

RSK3 = target: T27, RSK3 (Homo sapiens, UniProt Q15349)
T27 construct: purchased Reaction Biology Corporation
In short: as §1

SGK1 = target: T28, SGK1 (Homo sapiens, UniProt O00141)
T28 construct: purchased Reaction Biology Corporation
In short: as §1

STK38L/NDR2 = target: T29, STK38L/NDR2 (Homo sapiens, UniProt Q9Y2H1)
T29 construct: purchased Reaction Biology Corporation
In short: as §1

CDK14/cyclin Y (PFTK1) = target: T30, CDK14/cyclin Y (PFTK1) (Homo sapiens, UniProt O94921)
T30 construct: purchased Reaction Biology Corporation
In short: as §1

CDK2/cyclin O = target: T31, CDK2/cyclin O (Homo sapiens, UniProt P24941)
T31 construct: purchased Reaction Biology Corporation
In short: as §1

SRPK2 = target: T32, SRPK2 (Homo sapiens, UniProt P78362)
T32 construct: purchased Reaction Biology Corporation
In short: as §1

NEK9 = target: T33, NEK9 (Homo sapiens, UniProt Q8TD19)
T33 construct: purchased Reaction Biology Corporation
In short: as §1

T10 sequence (Q15303 26-1308): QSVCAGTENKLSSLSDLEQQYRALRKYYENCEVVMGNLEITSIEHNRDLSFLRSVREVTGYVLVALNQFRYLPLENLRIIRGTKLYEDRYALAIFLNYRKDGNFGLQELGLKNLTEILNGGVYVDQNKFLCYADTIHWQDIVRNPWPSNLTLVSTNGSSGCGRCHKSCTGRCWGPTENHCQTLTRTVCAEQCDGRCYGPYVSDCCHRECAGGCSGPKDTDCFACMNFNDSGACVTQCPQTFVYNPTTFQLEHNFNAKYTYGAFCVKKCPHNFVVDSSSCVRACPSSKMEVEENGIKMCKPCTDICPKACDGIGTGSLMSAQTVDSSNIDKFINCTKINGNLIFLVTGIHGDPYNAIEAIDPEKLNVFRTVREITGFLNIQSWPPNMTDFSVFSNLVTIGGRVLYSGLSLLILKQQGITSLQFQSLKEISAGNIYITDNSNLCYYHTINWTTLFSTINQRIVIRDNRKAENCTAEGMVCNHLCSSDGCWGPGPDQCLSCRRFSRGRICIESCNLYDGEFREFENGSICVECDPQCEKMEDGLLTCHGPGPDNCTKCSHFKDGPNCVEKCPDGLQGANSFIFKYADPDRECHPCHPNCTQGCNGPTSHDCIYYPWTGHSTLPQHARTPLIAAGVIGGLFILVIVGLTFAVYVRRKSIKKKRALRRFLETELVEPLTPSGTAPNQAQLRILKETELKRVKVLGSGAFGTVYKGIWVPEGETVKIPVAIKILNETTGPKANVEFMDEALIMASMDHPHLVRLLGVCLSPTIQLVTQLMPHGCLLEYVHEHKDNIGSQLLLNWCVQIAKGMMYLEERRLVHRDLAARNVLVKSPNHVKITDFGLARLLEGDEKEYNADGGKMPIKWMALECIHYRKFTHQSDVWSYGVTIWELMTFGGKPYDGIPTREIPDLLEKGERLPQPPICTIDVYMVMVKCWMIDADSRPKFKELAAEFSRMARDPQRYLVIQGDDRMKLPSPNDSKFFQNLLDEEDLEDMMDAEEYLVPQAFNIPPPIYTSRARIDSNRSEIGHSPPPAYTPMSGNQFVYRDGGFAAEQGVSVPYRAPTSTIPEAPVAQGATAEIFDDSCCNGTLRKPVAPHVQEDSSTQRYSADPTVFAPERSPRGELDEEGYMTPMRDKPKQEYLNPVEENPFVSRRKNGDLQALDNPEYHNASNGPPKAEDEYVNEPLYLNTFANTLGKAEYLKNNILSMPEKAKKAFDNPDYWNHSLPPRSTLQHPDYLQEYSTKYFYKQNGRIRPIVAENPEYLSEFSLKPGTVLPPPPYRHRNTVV
T19 sequence (P35916 25-1363): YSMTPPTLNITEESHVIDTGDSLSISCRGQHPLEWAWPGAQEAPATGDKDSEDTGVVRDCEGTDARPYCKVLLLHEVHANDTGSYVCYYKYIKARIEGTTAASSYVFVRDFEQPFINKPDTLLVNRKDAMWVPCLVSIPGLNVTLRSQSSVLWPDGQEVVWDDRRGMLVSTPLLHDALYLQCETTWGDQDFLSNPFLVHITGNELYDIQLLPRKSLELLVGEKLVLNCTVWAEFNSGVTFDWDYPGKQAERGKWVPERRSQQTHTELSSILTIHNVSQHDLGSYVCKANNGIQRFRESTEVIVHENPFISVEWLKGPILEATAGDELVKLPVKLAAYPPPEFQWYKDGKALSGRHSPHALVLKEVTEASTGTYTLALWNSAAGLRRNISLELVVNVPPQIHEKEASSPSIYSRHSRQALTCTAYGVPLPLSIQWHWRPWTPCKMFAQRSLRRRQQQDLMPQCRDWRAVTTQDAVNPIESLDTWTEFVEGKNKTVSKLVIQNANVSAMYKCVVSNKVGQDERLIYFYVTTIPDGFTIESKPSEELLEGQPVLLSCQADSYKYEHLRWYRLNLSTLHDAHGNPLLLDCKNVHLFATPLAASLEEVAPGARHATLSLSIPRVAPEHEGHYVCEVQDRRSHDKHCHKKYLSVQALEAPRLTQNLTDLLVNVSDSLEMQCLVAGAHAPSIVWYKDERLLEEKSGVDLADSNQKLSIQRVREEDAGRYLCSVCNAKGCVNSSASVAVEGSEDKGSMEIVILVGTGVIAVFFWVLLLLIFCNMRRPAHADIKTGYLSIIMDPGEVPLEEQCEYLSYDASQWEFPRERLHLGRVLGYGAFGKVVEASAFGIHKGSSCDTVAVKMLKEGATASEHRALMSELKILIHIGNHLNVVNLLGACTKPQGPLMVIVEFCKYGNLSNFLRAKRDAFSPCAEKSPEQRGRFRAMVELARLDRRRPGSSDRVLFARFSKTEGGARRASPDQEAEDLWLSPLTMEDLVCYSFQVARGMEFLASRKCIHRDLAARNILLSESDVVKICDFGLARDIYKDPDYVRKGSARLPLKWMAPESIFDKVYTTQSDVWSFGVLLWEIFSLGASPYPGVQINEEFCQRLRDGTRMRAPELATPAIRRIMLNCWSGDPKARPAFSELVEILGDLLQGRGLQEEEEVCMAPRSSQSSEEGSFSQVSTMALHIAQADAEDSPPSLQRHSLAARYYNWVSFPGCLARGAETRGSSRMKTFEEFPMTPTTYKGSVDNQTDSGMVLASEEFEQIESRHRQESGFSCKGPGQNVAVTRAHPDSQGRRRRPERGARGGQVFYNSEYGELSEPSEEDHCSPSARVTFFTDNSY
T21 sequence (Q9NQU5 whole entry): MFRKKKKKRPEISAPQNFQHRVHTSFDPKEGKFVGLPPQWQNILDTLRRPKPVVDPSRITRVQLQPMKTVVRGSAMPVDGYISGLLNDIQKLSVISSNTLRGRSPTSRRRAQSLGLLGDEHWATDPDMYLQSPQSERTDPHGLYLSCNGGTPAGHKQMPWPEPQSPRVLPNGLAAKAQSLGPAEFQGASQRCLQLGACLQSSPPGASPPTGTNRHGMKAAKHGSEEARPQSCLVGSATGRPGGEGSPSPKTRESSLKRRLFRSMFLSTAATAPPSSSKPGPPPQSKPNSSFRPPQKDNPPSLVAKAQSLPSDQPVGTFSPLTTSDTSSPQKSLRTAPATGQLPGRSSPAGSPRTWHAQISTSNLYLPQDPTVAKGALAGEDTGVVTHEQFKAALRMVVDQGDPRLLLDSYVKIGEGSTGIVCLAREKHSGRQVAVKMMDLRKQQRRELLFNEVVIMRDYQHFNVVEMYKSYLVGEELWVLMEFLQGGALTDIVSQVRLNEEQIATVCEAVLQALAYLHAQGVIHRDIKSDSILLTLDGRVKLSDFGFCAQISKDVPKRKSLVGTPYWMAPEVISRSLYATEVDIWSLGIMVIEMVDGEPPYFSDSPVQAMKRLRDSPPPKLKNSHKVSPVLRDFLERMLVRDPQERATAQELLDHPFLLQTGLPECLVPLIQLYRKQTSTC
T28 sequence (O00141 whole entry): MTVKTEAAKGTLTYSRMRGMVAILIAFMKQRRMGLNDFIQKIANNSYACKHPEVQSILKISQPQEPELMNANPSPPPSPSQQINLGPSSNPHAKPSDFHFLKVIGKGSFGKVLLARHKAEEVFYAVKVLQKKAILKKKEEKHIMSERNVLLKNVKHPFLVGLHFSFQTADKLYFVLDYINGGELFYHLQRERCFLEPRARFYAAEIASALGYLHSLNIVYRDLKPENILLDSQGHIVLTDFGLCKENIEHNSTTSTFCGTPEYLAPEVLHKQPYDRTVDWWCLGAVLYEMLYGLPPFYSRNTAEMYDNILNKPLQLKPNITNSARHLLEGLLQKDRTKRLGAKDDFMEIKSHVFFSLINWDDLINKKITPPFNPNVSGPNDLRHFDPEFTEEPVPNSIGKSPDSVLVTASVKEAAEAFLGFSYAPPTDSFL
T15 sequence (Q9Y2U5 whole entry): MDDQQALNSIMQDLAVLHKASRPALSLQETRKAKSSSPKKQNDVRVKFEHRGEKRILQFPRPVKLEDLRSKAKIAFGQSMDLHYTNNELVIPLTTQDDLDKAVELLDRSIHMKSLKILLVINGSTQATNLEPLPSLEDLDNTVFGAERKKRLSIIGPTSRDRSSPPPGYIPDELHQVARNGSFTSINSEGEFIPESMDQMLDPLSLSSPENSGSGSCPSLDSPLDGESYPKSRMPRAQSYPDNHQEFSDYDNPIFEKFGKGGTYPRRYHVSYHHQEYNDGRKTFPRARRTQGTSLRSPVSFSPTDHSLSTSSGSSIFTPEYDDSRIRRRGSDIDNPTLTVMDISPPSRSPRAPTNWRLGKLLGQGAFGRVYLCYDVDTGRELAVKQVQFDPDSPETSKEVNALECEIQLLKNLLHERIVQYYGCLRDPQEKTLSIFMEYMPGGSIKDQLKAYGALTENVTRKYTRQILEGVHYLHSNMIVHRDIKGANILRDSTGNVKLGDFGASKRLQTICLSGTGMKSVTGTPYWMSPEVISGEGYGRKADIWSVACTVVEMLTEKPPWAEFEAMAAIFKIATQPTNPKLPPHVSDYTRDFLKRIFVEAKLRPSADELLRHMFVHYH
T8 sequence (O00506 whole entry): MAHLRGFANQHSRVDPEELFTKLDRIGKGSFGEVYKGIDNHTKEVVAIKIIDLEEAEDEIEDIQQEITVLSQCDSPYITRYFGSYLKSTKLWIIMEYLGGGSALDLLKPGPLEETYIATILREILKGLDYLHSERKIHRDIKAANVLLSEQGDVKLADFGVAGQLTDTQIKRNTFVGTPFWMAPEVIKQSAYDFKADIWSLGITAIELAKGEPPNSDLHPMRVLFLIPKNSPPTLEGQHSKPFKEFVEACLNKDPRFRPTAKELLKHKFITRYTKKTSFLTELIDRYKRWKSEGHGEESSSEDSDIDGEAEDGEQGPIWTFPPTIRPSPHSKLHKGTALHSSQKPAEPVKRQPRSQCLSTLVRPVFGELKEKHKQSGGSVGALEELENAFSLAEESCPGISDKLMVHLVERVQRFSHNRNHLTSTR
T9 sequence (Q9BXA6 whole entry): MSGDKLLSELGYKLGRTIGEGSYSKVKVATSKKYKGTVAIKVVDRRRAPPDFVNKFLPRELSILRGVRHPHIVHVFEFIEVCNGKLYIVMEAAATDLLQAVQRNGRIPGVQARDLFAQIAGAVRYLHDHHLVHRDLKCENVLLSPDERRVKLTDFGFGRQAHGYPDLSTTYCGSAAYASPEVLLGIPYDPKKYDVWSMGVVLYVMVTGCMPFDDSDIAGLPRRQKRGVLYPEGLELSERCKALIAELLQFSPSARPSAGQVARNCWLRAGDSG

Compound: CC(=O)Nc1nc2ccc(-c3cnc(C)c(NC(=O)OC4CCCCC4)c3)cc2s1 [PK68, cyclohexyl (5-(2-acetamidobenzo[d]thiazol-6-yl)-2-methylpyridin-3-yl)carbamate]
- Activity% (CDK2/Cyclin A1; 1 μM): 96.71%
- activity at 1 µM (CDK2/Cyclin A1): 98.5%
- Activity% (CK1epsilon; 1 μM): 74.35%
- activity at 1 µM (CK1epsilon): 78.2%
- Activity% (HIPK1; 1 μM): 86.01%
- activity at 1 µM (HIPK1): 87.4%
- Activity% (TNK1; 1 μM): 86.66%
- activity at 1 µM (TNK1): 87.9%
- Activity% (BRSK1; 1 μM): 101.25%
- activity at 1 µM (BRSK1): 102%
- Activity% (CDK1/cyclin B; 1 μM): 97.32%
- activity at 1 µM (CDK1/cyclin B): 97.6%
- Activity% (CHK1; 1 μM): 87.21%
- activity at 1 µM (CHK1): 87.3%
- Activity% (STK25/YSK1; 1 μM): 104.63%
- activity at 1 µM (STK25/YSK1): 110%
- Activity% (SSTK/TSSK6; 1 μM): 91.18%
- activity at 1 µM (SSTK/TSSK6): 91.3%
- Activity% (ERBB4/HER4; 1 μM): 99.02%
- activity at 1 µM (ERBB4/HER4): 99.7%
- Activity% (STK21/CIT; 1 μM): 121.90%
- activity at 1 µM (STK21/CIT): 125%
- Activity% (NEK3; 1 μM): 116.50%
- activity at 1 µM (NEK3): 119%
- Activity% (SBK1; 1 μM): 102.75%
- activity at 1 µM (SBK1): 104%
- Activity% (DYRK4; 1 μM): 102.24%
- activity at 1 µM (DYRK4): 102%
- Activity% (MEKK2; 1 μM): 85.76%
- activity at 1 µM (MEKK2): 89.8%
- Activity% (HIPK3; 1 μM): 63.99%
- activity at 1 µM (HIPK3): 66.4%
- Activity% (DYRK1/DYRK1A; 1 μM): 95.93%
- activity at 1 µM (DYRK1/DYRK1A): 97.4%
- Activity% (HIPK4; 1 μM): 72.16%
- activity at 1 µM (HIPK4): 74.6%
- Activity% (FLT4/VEGFR3; 1 μM): 90.37%
- activity at 1 µM (FLT4/VEGFR3): 91%
- Activity% (SRMS; 1 μM): 97.95%
- activity at 1 µM (SRMS): 99.7%
- Activity% (PAK6; 1 μM): 92.62%
- activity at 1 µM (PAK6): 93.6%
- Activity% (HGK/MAP4K4; 1 μM): 82.64%
- activity at 1 µM (HGK/MAP4K4): 84.4%
- Activity% (ULK2; 1 μM): 101.80%
- activity at 1 µM (ULK2): 102%
- Activity% (WNK1; 1 μM): 111.38%
- activity at 1 µM (WNK1): 112%
- Activity% (IKKa/CHUK; 1 μM): 107.86%
- activity at 1 µM (IKKa/CHUK): 117%
- Activity% (CDC7/DBF4; 1 μM): 104.41%
- activity at 1 µM (CDC7/DBF4): 110%
- Activity% (RSK3; 1 μM): 96.49%
- activity at 1 µM (RSK3): 97.6%
- Activity% (SGK1; 1 μM): 93.47%
- activity at 1 µM (SGK1): 93.8%
- Activity% (STK38L/NDR2; 1 μM): 100.42%
- activity at 1 µM (STK38L/NDR2): 101%
- Activity% (CDK14/cyclin Y (PFTK1); 1 μM): 96.97%
- activity at 1 µM (CDK14/cyclin Y (PFTK1)): 97.4%
- Activity% (CDK2/cyclin O; 1 μM): 98.77%
- activity at 1 µM (CDK2/cyclin O): 99.8%
- Activity% (SRPK2; 1 μM): 100.99%
- activity at 1 µM (SRPK2): 101%
- Activity% (NEK9; 1 μM): 90.50%
- activity at 1 µM (NEK9): 90.9%
